Earlier results in article PMC10177510, “A Multicenter, Open-Label, Phase I/II Study of FN-1501 in Patients with Advanced Solid Tumors” (Cancers, 2023).
Read-outs that look alike come from different tables or passages of the source.

Columns and labels:
[1] = preclinical, no reference given, cited from earlier work
MOLM-13 xenograft = conditions: preclinical, no reference given; cited from earlier work

CN1CCN(Cc2ccc(NC(=O)c3[nH]ncc3Nc3ncnc4[nH]ccc34)cc2)CC1 [FN-1501]
Css,u in mice ([1]; 5 mg): roughly 5 ng/mL | Css,u in mice ([1]; 20 mg): ~0.05 µg/mL | Dose at which tumor growth reached stasis (MOLM-13 xenograft): 20 mg/kg
